Assays:
Assay type in all cases: in vivo, humans
[1] = system: PDAP patients; assay: Renal function, blood lipid and electrolyte indicators before and after teicoplanin treatment; conditions: post-treatment group n = 36
Source text: (§1) The secondary efficacy endpoints of this study mainly involve infectious markers: C-reactive protein (CRP) and procalcitonin (PCT); Hematological parameters: white blood cell count (b-WBC), blood neutrophilic granulocyte percentage (b-NE%), and hemoglobin (Hb); Renal function markers: serum creatinine (Scr), urea, uric acid (UA), and albumin (ALB).
There were no significant changes in indicators such as Scr after medication compared to before treatment, and there was no significant difference in the patients' renal function (Table S3).

[2] = system: PDAP patients with gram-positive bacteria cultured from PD effluent; assay: Efficacy of intraperitoneal teicoplanin in PDAP patients (PD effluent analysis, clinical symptoms, infection markers)
Source text: According to the ISPD guidelines recommendation ([Li et al., 2022]), doctors can establish a diagnosis of PDAP. […] Participants should not have taken part in other clinical trials in the past 3 months, understand the trial’s purpose, willingly participate, and sign informed consent forms.
(§2) According to the patient’s PD plan, teicoplanin for injection was evenly distributed into each bag of PD fluid before the patient’s PD procedure to ensure that each bag of dialysis fluid entering the peritoneal cavity contained teicoplanin. […] The number of dialysis times per day is determined by the peritoneal function of each peritoneal dialysis patient.
[…] This assessment considered primary efficacy endpoints, secondary efficacy endpoints, and primary safety endpoints. The primary efficacy endpoints in this study are: 1) White blood cell count in PD effluent (p-WBC) < 100 × 10^6/L; 2) Percentage of neutrophilic granulocytes in PD effluent (p-NE%) < 50%; 3) Resolution of abdominal pain, absence of fever, and clarity of PD effluent in clinical signs of patients. According to ISPD guidelines, meeting all three criteria or two of the three constitutes a cure, while meeting one is classified as partial relief. The efficacy calculation involves determining the proportion of cured and partially relieved patients among the total.
as §1
However, most patients show significant improvement in clinical symptoms within 1 week.

[3] = Serum teicoplanin concentration by HPLC; conditions: Uncured group n = 7, serum collected on the 4th day prior to drug administration, intraperitoneal 0.2 g daily, HPLC-UV 215 nm, mean ± SD
Procedure: (§3) All patients received peritoneal dialysate and serum samples. […] Serum samples were collected on the 4th day prior to drug administration. Blood samples were centrifuged at 3,000 rpm for 10 minutes. The upper serum layer was then transferred into labeled EP tubes and stored at −80°C. Peritoneal fluid samples were collected daily after the PD procedure. The peritoneal fluid bag was disinfected with iodine, and peritoneal effluent was withdrawn using a sterile syringe and stored at −80°C.
(§4) An Agilent Zorbax SB-C18 column (4.6 × 250 mm, 5 μm) was used. Methyl p-hydroxybenzoate served as the internal standard. The column temperature was kept at 35°C. The mobile phase comprised acetonitrile - 0.01 mol/L potassium dihydrogen phosphate (26:74, v/v, pH = 2.8 adjusted by phosphoric acid). A flow rate of 1 mL/min was set, with an injection volume of 40 μL. UV detection was conducted at 215 nm, while the column temperature remained at 40°C. The pretreatment and chromatographic methods for detecting teicoplanin in serum and PD effluent are the same (Supplement Material).

[4] = Teicoplanin concentration in peritoneal dialysis effluent (PDE) by HPLC
Procedure: as §2, §3, §4
Using multiple 1.5 mL centrifuge tubes, 360 μL of bovine serum is added to each tube. Subsequently, 40 μL of the respective standard curve series working solution, 30 μL of the internal standard solution, and 600 μL of acetonitrile are added. The contents are thoroughly mixed by vortexing, centrifuged at 14,000 rpm for 8 minutes, and 100 μL of the supernatant is transferred to sample vials for HPLC analysis.
Perform linear regression fitting using the weighted (1/X^2) least squares method, resulting in the standard curve regression equation y = 0.0262x-0.0124 (R^2 = 0.9994).

[5] = Uncured group n = 7, mean (Q25, Q75)
[6] = Uncured group n = 7, mean ± SD, SD
[7] = number of 36 PDAP patients, intraperitoneal 0.2 g daily, after 7 days
[8] = Cured group n = 29, intraperitoneal 0.2 g daily, HPLC-UV, mean (Q25, Q75)
[9] = Cured group n = 29, intraperitoneal 0.2 g daily, HPLC-UV, mean ± SD, SD
[10] = Uncured group n = 7, intraperitoneal 0.2 g daily, HPLC-UV, mean ± SD, SD

For teicoplanin, the ALB ([1]; mean ± SD, pre-treatment 28.66 ± 4.99, SD) was 28.55 ± 5.97 g/L, the Scr ([1]; mean ± SD, pre-treatment 772.45 ± 320.15, SD) was 739.46 ± 312.14 µmol/L and the HDL ([1]; pre-treatment 0.88 ± 0.38) was 0.76 ± 0.55 mmol/L. For the same substance, the TG ([1]; pre-treatment 1.25 (1.02, 1.74)) was 1.21 (1.01, 2.27) mmol/L, the LDL ([1]; pre-treatment 1.91 ± 0.81) was 1.49 ± 0.69 mmol/L and the Ca ([1]; pre-treatment 2.02 (1.86, 2.18)) was 2.08 (1.81, 2.26) mmol/L. The TC ([1]; pre-treatment 3.49 ± 1.02) was 2.97 ± 0.85 mmol/L, the eGFR ([1]; pre-treatment 6.35 (4.72, 8.52)) was 7.30 (4.90, 8.50) mL/min/1.73m^2 and the Urea ([1]; pre-treatment 16.20 (12.55, 21.46)) was 16.00 (10.20, 21.30) mmol/L. The Na ([1]; pre-treatment 134.75 ± 5.25) was 136.40 ± 5.49 mmol/L, the CRP after treatment [2, 5] was 34.00 (5.20, 69.38) mg/L and the PCT after treatment [2, 5] was 0.66 (0.29, 2.87) ng/mL. The p-WBC after treatment [2, 5] was 159.00 (112.5, 1023.5) *10^6/L, the b-NE% after treatment [2, 6] was 71.08 ± 25.08% and the b-WBC after treatment [2, 6] was 6.40 ± 2.28 *10^9/L. The p-NE% after treatment [2, 6] was 58.86 ± 33.91%, the Fever ([2]; cases (%) in post-treatment group n = 36, pre-treatment 8 (22.3%)) was 1 (2.7%) and the Diarrhea ([2]; cases (%) in post-treatment group n = 36, pre-treatment 9 (25%)) was 1 (2.7%). For the same substance, the Peritoneal dialysate turbidity ([2]; cases (%) in post-treatment group n = 36, pre-treatment 26 (72.2%)) was 2 (5.6%), the Abdominal pain ([2]; cases (%) in post-treatment group n = 36, pre-treatment 31 (86.1%)) was 3 (8.3%) and the “overall treatment success rate” value ([2]; cured plus partial remission among 36 PDAP patients, intraperitoneal 0.2 g daily, assessed after 7 days) was 88.9%. For the same substance, the “patients with treatment failure” value ([2]; number of 36 PDAP patients (1 died, 3 permanently transitioned to hemodialysis)) was 4, the patients cured [2, 7] was 29 and the “patients in partial remission” value [2, 7] was 3. The p-Lym% ([2]; post-treatment group n = 36, after 7 days, mean (Q25, Q75), pre-treatment 14.55 (9.85, 29.1)) was 72.85 (45.95, 86.45) %, the “p-Lym (lymphocyte count in PD effluent)” value ([2]; post-treatment group n = 36, after 7 days, mean (Q25, Q75), pre-treatment 196.00 (91.15, 444.62)) was 14.00 (6.25, 49.75) *10^6/L and the p-NE ([2]; post-treatment group n = 36, after 7 days, mean (Q25, Q75), pre-treatment 1099.60 (418.57, 3333.62)) was 4.00 (1.00, 18.00) *10^6/L. The “p-WBC (white blood cell count in PD effluent)” value ([2]; post-treatment group n = 36, after 7 days, mean (Q25, Q75), pre-treatment 1333.5 (573.50, 4475.00)) was 28.00 (10.25, 75.00) *10^6/L, the PCT ([2]; secondary indicator, post-treatment group n = 36, after 14 days, mean (Q25, Q75), pre-treatment 0.66 (0.30, 2.99)) was 0.61 (0.29, 1.15) ng/mL and the b-WBC ([2]; secondary indicator, post-treatment group n = 36, after 14 days, mean (Q25, Q75), pre-treatment 6.40 (5.32, 8.00)) was 6.20 (5.32, 8.85) *10^9/L. The CRP ([2]; secondary indicator, post-treatment group n = 36, after 14 days, mean (Q25, Q75), pre-treatment 37.50 (10.00, 101.27)) was 8.30 (3.55, 19.33) mg/L, the b-NE% ([2]; secondary indicator, post-treatment group n = 36, after 14 days, mean (Q25, Q75), pre-treatment 77.60 (67.42, 84.95)) was 69.10 (59.32, 72.60) % and the Serum teicoplanin concentration [3] was 10.85 ± 4.92. For the same substance, the “PDE teicoplanin concentration on Day 5” value ([4]; 24-h urine volume 0–200 mL, n = 17, M50 (M25, M75)) was 12.85 (8.12, 21.23) mg/L, the “PDE teicoplanin concentration on Day 5” value ([4]; 24-h urine volume 201–537 mL, n = 10, M50 (M25, M75)) was 10.17 (7.38, 24.59) mg/L and the “PDE teicoplanin concentration on Day 5” value ([4]; 24-h urine volume >537 mL, n = 9, M50 (M25, M75)) was 23.16 (18.89, 39.45) mg/L. For the same substance, the “Day 3 PDE teicoplanin concentration” value [4, 8] was 14.17 (6.80, 22.93) mg/L, the “Day 7 PDE teicoplanin concentration” value [4, 8] was 20.89 (9.45, 30.23) mg/L and the “Day 1 PDE teicoplanin concentration” value [4, 9] was 13.65 ± 3.26 mg/L. The “Day 5 PDE teicoplanin concentration” value [4, 9] was 18.98 ± 2.43 mg/L, the “Day 7 PDE teicoplanin concentration” value ([4]; Uncured group n = 7, intraperitoneal 0.2 g daily, HPLC-UV, mean (Q25, Q75)) was 11.43 (8.42, 13.21) mg/L and the “Day 1 PDE teicoplanin concentration” value [4, 10] was 11.48 ± 3.39 mg/L. For the same substance, the “Day 5 PDE teicoplanin concentration” value [4, 10] was 12.07 ± 2.68 mg/L, the “day-5 PDE teicoplanin concentration” value ([4]; age 49 ~ 61 years old, n = 9, mean ± SD, SD) was 10.18 ± 1.68 mg/L and the “day-5 PDE teicoplanin concentration” value ([4]; age 62 ~ 71 years old, n = 9, mean ± SD, SD) was 20.19 ± 8.62 mg/L. The “day-5 PDE teicoplanin concentration” value ([4]; age > 71 years old, n = 9, mean ± SD, SD) was 29.46 ± 12.29 mg/L, the “day-5 PDE teicoplanin concentration” value ([4]; age ≤ 48 years old, n = 9, mean ± SD, SD) was 19.46 ± 10.28 mg/L and the “day-5 PDE teicoplanin concentration” value ([4]; body weight 54-60 kg, n = 9, mean ± SD, SD) was 20.19 ± 6.74 mg/L. For the same substance, the “day-5 PDE teicoplanin concentration” value ([4]; body weight 61-76.5 kg, n = 8, mean ± SD, SD) was 15.37 ± 6.39 mg/L, the “day-5 PDE teicoplanin concentration” value ([4]; body weight ≤ 53 kg, n = 10, mean ± SD, SD) was 24.23 ± 7.34 mg/L and the “day-5 PDE teicoplanin concentration” value ([4]; body weight ≥ 76.5kg, n = 9, mean ± SD, SD) was 19.27 ± 7.38 mg/L. The “day-5 PDE teicoplanin concentration” value ([4]; both G1.5% and G2.5% low calcium peritoneal dialysate, n = 8, mean ± SD, SD) was 19.47 ± 9.45 mg/L, the “PDE teicoplanin concentration on Day 5” value ([4]; daily PD frequency 1–3 times, n = 5, mean ± SD, SD) was 38.71 ± 16.36 mg/L and the “PDE teicoplanin concentration on Day 5” value ([4]; daily PD frequency 4 times, n = 18, mean ± SD, SD) was 12.89 ± 7.28 mg/L. The “PDE teicoplanin concentration on Day 5” value ([4]; daily PD frequency 5–6 times, n = 13, mean ± SD, SD) was 17.67 ± 10.23 mg/L, the “day-5 PDE teicoplanin concentration” value ([4]; eGFR 4.726 ~ 6.35 mL/min, n = 9, mean ± SD, SD) was 28.39 ± 11.47 mg/L and the “day-5 PDE teicoplanin concentration” value ([4]; eGFR 6.36 ~ 8.524 mL/min, n = 9, mean ± SD, SD) was 18.26 ± 7.45 mg/L. The “day-5 PDE teicoplanin concentration” value ([4]; eGFR ≤ 4.725 mL/min, n = 9, mean ± SD, SD) was 16.05 ± 5.28 mg/L, the “day-5 PDE teicoplanin concentration” value ([4]; eGFR ≥ 8.525 mL/min, n = 9, mean ± SD, SD) was 21.21 ± 9.21 mg/L and the “day-5 PDE teicoplanin concentration” value ([4]; females, n = 14, mean ± SD, SD) was 18.22 ± 6.29 mg/L. The “day-5 PDE teicoplanin concentration” value ([4]; fibrinogen 4.2 to 5.2 g/L, n = 9, mean ± SD, SD) was 20.72 ± 8.16 mg/L, the “day-5 PDE teicoplanin concentration” value ([4]; fibrinogen 5.3 to 6.54 g/L, n = 7, mean ± SD, SD) was 17.35 ± 6.45 mg/L and the “day-5 PDE teicoplanin concentration” value ([4]; fibrinogen ≤ 4.1 g/L, n = 9, mean ± SD, SD) was 30.56 ± 12.32 mg/L. For the same substance, the “day-5 PDE teicoplanin concentration” value ([4]; fibrinogen ≥ 6.55 g/L, n = 11, mean ± SD, SD) was 14.87 ± 7.07 mg/L, the “day-5 PDE teicoplanin concentration” value ([4]; males, n = 22, mean ± SD, SD) was 19.25 ± 7.89 mg/L and the “day-5 PDE teicoplanin concentration” value ([4]; only G1.5% low calcium peritoneal dialysate, n = 10, mean ± SD, SD) was 19.24 ± 10.23 mg/L. The “day-5 PDE teicoplanin concentration” value ([4]; only G2.5% low calcium peritoneal dialysate, n = 18, mean ± SD, SD) was 24.48 ± 9.23 mg/L.

Source: paper PMC11416981 (Frontiers in Pharmacology, 2024)
